Data taken from publication PMC12675575, “A BRET biosensor for measuring uncompetitive engagement of PRMT5 complexes in cells” (Nature Communications, 2025).
Where “and” joins values, the source holds several entries; their conditions need not be identical. Equal entries are not always repeated.

Biological target: T1, PRMT9 (Homo sapiens, UniProt Q6P2P2)
T1 construct: host or cells: HEK293
T1 sequence (Q6P2P2 1-845): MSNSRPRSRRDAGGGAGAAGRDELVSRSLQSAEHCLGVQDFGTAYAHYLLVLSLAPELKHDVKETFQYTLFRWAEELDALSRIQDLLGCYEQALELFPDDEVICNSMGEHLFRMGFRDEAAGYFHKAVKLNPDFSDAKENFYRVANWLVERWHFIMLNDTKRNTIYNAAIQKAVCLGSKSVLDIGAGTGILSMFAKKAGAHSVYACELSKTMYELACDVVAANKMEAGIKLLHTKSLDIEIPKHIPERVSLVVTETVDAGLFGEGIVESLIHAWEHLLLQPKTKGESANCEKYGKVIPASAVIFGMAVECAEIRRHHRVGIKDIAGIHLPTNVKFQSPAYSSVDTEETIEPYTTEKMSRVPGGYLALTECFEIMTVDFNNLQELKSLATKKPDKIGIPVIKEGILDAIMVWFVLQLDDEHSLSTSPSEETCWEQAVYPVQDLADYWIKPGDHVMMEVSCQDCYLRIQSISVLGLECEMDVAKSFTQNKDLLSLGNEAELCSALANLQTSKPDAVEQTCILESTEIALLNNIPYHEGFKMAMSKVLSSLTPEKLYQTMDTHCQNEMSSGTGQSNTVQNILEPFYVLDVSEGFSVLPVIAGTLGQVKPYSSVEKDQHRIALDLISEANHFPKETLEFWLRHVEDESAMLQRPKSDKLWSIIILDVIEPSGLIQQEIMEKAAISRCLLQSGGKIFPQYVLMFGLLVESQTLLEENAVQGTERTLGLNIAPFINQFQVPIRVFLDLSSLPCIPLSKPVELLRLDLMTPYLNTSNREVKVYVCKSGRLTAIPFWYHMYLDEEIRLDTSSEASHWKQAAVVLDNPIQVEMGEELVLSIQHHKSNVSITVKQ
Test: CBH-002 affinity curve, HEK293, PRMT9-NL fusion
Assay type: cell-based
Design: BRET, CBH-002 + DMSO / BRET, CBH-002 + GSK3326595: unit not given here
Conditions: for BRET, CBH-002 + DMSO / BRET, CBH-002 + GSK3326595: Figure S2D PRMT9-NL, log([CBH-002])
Protocol: HEK293 cells (ATCC) were cultured in DMEM (Thermo Fisher) + 10% (v/v) FBS (Seredigm), and HCT116 cells (Horizon Discovery, #PAR-034 and #R02-033) were cultured in McCoy’s 5A (Thermo Fisher) + 10% FBS, with incubation in a humidified, 37 °C/5% CO2 incubator. Cells were split 1–3 days prior to performing experiments and used at roughly 80% confluency. […] Cells were transfected according to the manufacturer’s protocol using FuGENE HD (Promega). NanoLuc fusion DNA was diluted into Transfection Carrier DNA (Promega) in Opti-MEM at a ratio of 1:9 (mass/mass), and FuGENE HD was added at a ratio of 1:3 (μg DNA:μL lipid). For experiments using WDR77, untagged WDR77 DNA (Promega) was used in place of Carrier DNA. Formed complexes were combined with cells resuspended to a density of 2 × 10^5 cells/mL in Opti-MEM + 1% FBS at a ratio of 1:20 (vol:vol). Cells were plated into a flask and incubated at 37 °C in a humidified 5% CO2 atmosphere for 18–24 h, before being lifted and seeded into 96-well non-binding surface-treated plates (Corning). Cells were seeded at a density of 2 × 10^5 cells/mL in Opti-MEM + 1% FBS in 100 μL (96-well). The BRET probe CBH-002 was prepared first as a 100× stock in 100% DMSO (Sigma) and then diluted to a 20× stock in NanoBRET Tracer Dilution buffer (Promega). Test compounds were prepared as 1000× stocks in 100% DMSO and diluted to 10× stocks in Opti-MEM to prepare working stocks. […] NanoBRET Complete 3x Substrate was prepared by combining Nano-Glo Substrate and Extracellular NanoLuc Inhibitor in Opti-MEM, according to the manufacturer’s protocol (Promega). NanoBRET Complete 3× Substrate was added to cells and plates were measured on either a PheraSTAR FSX equipped with 450 nm (donor) and 610 nm (acceptor) filters, or a GloMAX Discover equipped with 450/8 nm BP (donor) and 600 nm LP (acceptor) filters, using a 0.3 s integration time.
EC50 values were obtained by fitting the BRET probe and compound affinity curves to a sigmoidal four-parameter fit model in Graphpad Prism:1 Y=Ymin+Ymax−Ymin/1+10^LogEC50−Xh where h is the Hill Slope.

BRET, CBH-002 + DMSO (uM 0.04576): 3.434 and 3.347 and 3.1287
BRET, CBH-002 + GSK3326595 (uM 0.04576): 3.008 and 3.39 and 2.997
BRET, CBH-002 + DMSO (uM 0.52288): 4.122 and 5.87 and 4.53
BRET, CBH-002 + GSK3326595 (uM 0.52288): 5.212 and 4.497 and 4.8771
BRET, CBH-002 + DMSO (uM 1): 6.91 and 7.001 and 6.884
BRET, CBH-002 + GSK3326595 (uM 1): 6.307 and 7.343 and 6.276
BRET, CBH-002 + DMSO (uM -0.43136): 2.433 and 2.903 and 2.863
BRET, CBH-002 + GSK3326595 (uM -0.43136): 2.897 and 2.374 and 2.8944
BRET, CBH-002 + DMSO (uM -0.90849): 2.344 and 2.202 and 2.303
BRET, CBH-002 + GSK3326595 (uM -0.90849): 2.454 and 2.214 and 2.074
BRET, CBH-002 + DMSO (uM -1.20952): 1.839 and 2.321 and 2.413
BRET, CBH-002 + GSK3326595 (uM -1.20952): 2.422 and 2.062 and 3.074
BRET, CBH-002 + DMSO (uM -1.68664): 1.998 and 2.054 and 2.063
BRET, CBH-002 + GSK3326595 (uM -1.68664): 2.126 and 2.181 and 2.003
BRET, CBH-002 + DMSO (uM -1.98767): 2.1788 and 2.218 and 2.268
BRET, CBH-002 + GSK3326595 (uM -1.98767): 2.04 and 1.965 and 2.075
BRET, CBH-002 + GSK3326595 (uM -2.46479): 2.072 and 1.988 and 1.944
BRET, CBH-002 + DMSO (uM -2.94191): 1.888 and 2.124 and 2.713
BRET, CBH-002 + GSK3326595 (uM -2.94191): 1.993 and 2.159 and 2.4012
CBH-002 engagement at PRMT9 (HEK293, PRMT9-NL): did not show engagement
Compound: O=C(CCc1ccc2n1[B-](F)(F)[N+]1=C(c3ccc[nH]3)C=CC1=C2)NCCCCC(=O)N1CCC(Nc2cc(C(=O)NC[C@H](O)CN3CCc4ccccc4C3)ncn2)CC1 [CBH-002]
